Test results taken from patent publication US8124655B2, “Use of LR-90 and LR-102 to overcome insulin resistance” (City of Hope, priority 2007, dated 2012).

Assays:
[1] = test system: Cybb, the gene encoding for the gp91phox subunit of NADPH; assay: Kidney expression of Cybb (data not shown); format: in vivo, rat; settings: ZDF rats
[2] = test system: Zucker diabetic fatty rats (ZDF, fa/fa); assay: Metabolic data of ZDF rats treated with LR-90 or LR-102 (Example 2); format: in vivo, rat
Experimental: The present Example presents the results of an investigation of the effects of LR-90, an inhibitor of AGE/ALE formation, in male Zucker diabetic fatty rats (ZDF, fa/fa) fed with Purina 5008 diet until 40 weeks of age, and their hetorozygous lean littermates (ZDF fa/+) as non-hyperglycemic controls. LR-90 at 50 mg/L of drinking water was given to a subgroup of ZDF rats after the rats developed spontaneous diabetes at 13 weeks of age. At 40 weeks of age, and before killing the animals, their weight was measured; HbA1c, plasma glucose, insulin, triglycerides, cholesterol, CRP and urinary albumin and creatinine concentrations were measured. After euthanizing all animals, organs such as the kidneys, eyeballs, liver, heart, aortae and pancreas were dissected and subjected to immunohistochemical staining, RT-PCR, Western blotting and microscopy.

[3] = test system: experimental type 1 diabetic nephropathy; settings: previous studies (24); cited from earlier work
CML-AGE, AGER = assay: Plasma and renal AGE and AGER; format: in vivo, rat; settings: ZDF rats
Experimental: All animal studies were carried out in compliance with policies outlined in The Guide for the Care and Handling of Laboratory Animals (NIH Publication No. 85-23) that have been approved by the City of Hope Animal Care Committee. Male ZDF (fa/fa) and male Zucker lean (+/+; ZL) rats were obtained at the age of 5 weeks from Charles River Laboratories (Wilmington, Mass., USA). Animals were maintained with free access to Purina 5008 rat chow (Purina Mills, St Louis, Mo., USA) and tap water. All animals were individually housed in a controlled room with a 12 h dark-light cycle. At the age of 13 weeks, the animals were divided into the following groups: (1) ZL rats (n=6); (2) ZDF rats without treatment (n=6); and (3) ZDF rats treated with LR-90 at 50 mg/l in their drinking water (ZDF90, n=6). The dose of LR-90 was chosen after previous experiments with type 1 diabetic nephropathy. Food, water intake, body weight and blood glucose levels were monitored periodically. Systolic blood pressure was measured by tail-cuff plethysmography (CODA2 Blood Pressure System; Kent Scientific, Torrington, Conn., USA). […] Plasma glucose, lipids and Nε-(carboxymethyl)lysine-AGE Plasma glucose was measured using a glucose analyzer (2300 STAT; YSI, Yellowsprings, Ohio, USA). Total plasma triacylglycerol and cholesterol concentrations were quantified using the Vitros 250 Chemistry System (Johnson & Johnson, Rochester, N.Y., USA). Nε-(Carboxymethyl)lysine (CML)-AGE was liberated from plasma proteins by acid hydrolysis and then measured by ion-pair reversed-phase liquid chromatography/tandem mass spectrometry as described previously. […]
Renal cortical tissues were homogenised in PBS buffer with 1% (vol./vol.) Nonidet P-40, 0.5% (wt/vol.) sodium deoxycholate, 0.1% (wt/vol.) SDS and protease inhibitor mixture (Roche, Indianapolis, Ind., USA). […] Protein concentrations were measured using the Bio-Rad DC Assay kit. […] Immunoreactive proteins were detected by enhanced chemiluminescence (Western Lightning Chemiluminescence Reagent; Perkin-Elmer, Waltham, Mass., USA) using horseradish peroxidase-labelled secondary antibodies. […]

[4] = test system: Zucker diabetic fatty (ZDF) rat; assay: Metabolic parameters of ZDF rats treated with LR-90 (Example 1); format: in vivo
Experimental: As noted, previous studies have shown that LR-90, a new inhibitor of AGE formation, prevented the development of experimental type 1 diabetic nephropathy. In the present Example, the effects of LR-90 were examined in the Zucker diabetic fatty (ZDF) rat, a model of type 2 diabetes and metabolic syndrome, and the mechanisms by which it may protect against renal injury were investigated. In this Example, male ZDF rats were treated without or with LR-90 from age 13 to 40 weeks. Metabolic and kidney functions and renal histology were evaluated. AGE accumulation and the production of the receptor for AGE (AGER) were measured. Profibrotic growth factors, extracellular matrix proteins and intracellular signalling pathways associated with glomerular and tubular damage were also analysed. […] RenalAGE, AGER and lipid peroxidation were all attenuated by LR-90. […] This was associated with reduction in glomerulosclerosis and tubulointerstitial fibrosis, concomitant with marked inhibition of renal overproduction of TGF-β1, connective tissue growth factor, fibronectin and collagen IV.
All animal studies were carried out in compliance with policies outlined in The Guide for the Care and Handling of Laboratory Animals (NIH Publication No. 85-23) that have been approved by the City of Hope Animal Care Committee. Male ZDF (fa/fa) and male Zucker lean (+/+; ZL) rats were obtained at the age of 5 weeks from Charles River Laboratories (Wilmington, Mass., USA). Animals were maintained with free access to Purina 5008 rat chow (Purina Mills, St Louis, Mo., USA) and tap water. All animals were individually housed in a controlled room with a 12 h dark-light cycle. At the age of 13 weeks, the animals were divided into the following groups: (1) ZL rats (n=6); (2) ZDF rats without treatment (n=6); and (3) ZDF rats treated with LR-90 at 50 mg/l in their drinking water (ZDF90, n=6). The dose of LR-90 was chosen after previous experiments with type 1 diabetic nephropathy. Food, water intake, body weight and blood glucose levels were monitored periodically. Systolic blood pressure was measured by tail-cuff plethysmography (CODA2 Blood Pressure System; Kent Scientific, Torrington, Conn., USA). Animals were killed at the age of 40 weeks by over-anaesthetisation with isoflurane and cardiac puncture. Blood samples were collected from each animal and transferred accordingly into heparinised vacutainer tubes; they were later centrifuged (1,500×g for 10 min at 4° C.) for plasma isolation. The kidneys were removed immediately, rinsed in PBS and weighed, after which specimens were snap-frozen in liquid nitrogen or fixed in 10% (vol./vol.) neutral buffered formalin for further biochemical and histological analyses. Plasma glucose, lipids and Nε-(carboxymethyl)lysine-AGE Plasma glucose was measured using a glucose analyzer (2300 STAT; YSI, Yellowsprings, Ohio, USA). Total plasma triacylglycerol and cholesterol concentrations were quantified using the Vitros 250 Chemistry System (Johnson & Johnson, Rochester, N.Y., USA). Nε-(Carboxymethyl)lysine (CML)-AGE was liberated from plasma proteins by acid hydrolysis and then measured by ion-pair reversed-phase liquid chromatography/tandem mass spectrometry as described previously.

[5] = ZDF rats at 40 weeks of age, Mean ± SEM
[6] = ZDF rats, LR-90 50 mg/l in drinking water, at 40 weeks of age, mean ± SEM

CC(C)(Oc1ccc(NC(=O)Nc2ccc(Cc3ccc(NC(=O)Nc4ccc(OC(C)(C)C(=O)O)cc4)c(Cl)c3)cc2Cl)cc1)C(=O)O [LR-90, methylene bis[4,4′-(2-chlorophenylureidophenoxyisobutyric acid)]]
increased kidney expression of Cybb [1]: attenuated
Plasma glucose ([2]; ZDF rats at 40 weeks of age, drug in drinking water, Mean ± SEM): 25 ± 2.3 mM
Cholesterol [2, 5]: 244 ± 13 mg/dL
HbA1c [2, 5]: 2.89 ± 0.07%
Plasma CRP [2, 5]: 0.58 ± 0.09 mg/mL
Plasma insulin, ELISA [2, 5]: 0.64 ± 0.10 ng/mL
Plasma insulin, RIA [2, 5]: 0.63 ± 0.04 ng/mL
Triglycerides [2, 5]: 384 ± 51 mg/dL
Urinary Albumin [2, 5]: 27.8 ± 4.8 mg/24 h
effect on hyperglycemia ([2]; ZDF rats, Example 2): no effect
effect on hyperlipidemia ([2]; ZDF rats, Example 2): significantly reduced
increase in CRP levels ([2]; ZDF rats, Example 2): attenuated
development of experimental type 1 diabetic nephropathy [3]: prevented
Ager mRNA and protein in kidney tissues (CML-AGE, AGER; RT-PCR and immunostaining): markedly abrogated
AGE accumulation in kidney tissues (CML-AGE, AGER; immunohistochemistry): markedly abrogated
attenuation of circulating plasma CML-AGE concentration (CML-AGE, AGER; p<0.01, LC/tandem MS): 22%
effect on blood pressure ([4]; ZDF rats, Example 1): modest, but not statistically significant effects
effect on hyperglycaemia ([4]; ZDF rats, Example 1): modest, but not statistically significant effects
Plasma Cholesterol [4, 6]: 6.3 ± 0.3 mmol/L
Plasma Triglycerides [4, 6]: 4.4 ± 0.6 mmol/L
Plasma glucose [4, 6]: 25.0 ± 2.3 mmol/L
Mean Systolic BP ([4]; ZDF rats, LR-90 50 mg/l in drinking water, at 40 weeks of age, tail-cuff, mean ± SEM): 144 ± 6 mm Hg
reduction of plasma cholesterol ([4]; vs untreated ZDF rats, p<0.05): ~30%
reduction of plasma triacylglycerol ([4]; vs untreated ZDF rats, p<0.05): ~55%
